Reference: patent publication US20240092835A1, “NOVEL PEPTIDES CAPABLE OF ALTERING NK CELL ACTIVITY” (Massachusetts Institute of Technology, priority 2022, published 2024)
Entries after “also recorded” stand apart in the source; their conditions may differ. Where no end group is shown, it is not given here.

Columns and labels:
[1] = biological target: CD94/NKG2C (Homo sapiens, UniProt P26717+Q13241); test: Steady-state surface plasmon resonance of peptide-HLA-E complex with CD94/NKG2C; type: binding; conditions: for Binding of peptide-HLA-E complexes to CD94/NKG2C normalized to a theoretical Rmax: steady-state SPR
Chain of CD94/NKG2C (P26717 94-231 limits assumed): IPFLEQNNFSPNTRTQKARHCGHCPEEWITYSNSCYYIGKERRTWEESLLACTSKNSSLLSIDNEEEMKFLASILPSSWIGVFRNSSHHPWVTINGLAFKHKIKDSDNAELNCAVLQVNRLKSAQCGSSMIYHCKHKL
Chain of CD94/NKG2C (Q13241 32-179 limits assumed): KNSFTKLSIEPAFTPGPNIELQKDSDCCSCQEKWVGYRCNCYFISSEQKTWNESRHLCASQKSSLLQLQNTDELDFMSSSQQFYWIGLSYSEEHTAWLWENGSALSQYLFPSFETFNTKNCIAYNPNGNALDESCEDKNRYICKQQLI
Description: Binding affinity of novel peptides linked to HLA-E was determined using surface plasmon resonance (SPR), a methodology used to study protein-protein interactions (Tables 15-19). The peptide-HLA-E complex (generated as a single chain trimer) was immobilized on the sensor chip surface and CD94/NKG2A or CD94/NKG2C were flowed over. Steady-state surface plasmon resonance experiments were performed with a Biacore T200 instrument. CD94/NKG2x in HBS-EP+ buffer was injected as analyte in a concentration range of 0.1 μM to 102.4 μM and flow rate of 10 μL/min at 25° C. Data was fit with Prism 9.4 (GraphPad Software Inc; San Diego CA) to a “one site, specific binding” model. Series S CM5 chips were coupled to neutravidin and utilized. Biotinylated pMHC was immobilized at approximately 400 RU. KD values calculated by Biacore software are reported. Rmax, fit values were calculated by Biacore software. Rmax, theoretical values were calculated using the analyte/ligand mass ratio (0.66) multiplied by the amount of ligand coupled to the chip.

[2] = system: NKG2A−/NKG2C− NK cells; test: NK cell activation markers in control NKG2A-/NKG2C- NK cells incubated with peptide and K562 expressing HLA-E; type: cell-based, human
How it was run: (§1)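 K562 + HLA-E, pulsed with human/CMV proteome peptides → incubated with sorted NK subsets → surface marker staining, % positive cells. Increase = activation; decrease = inhibition.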

[3] = system: NKG2A+/NKG2C− NK cells; test: NK cell activation markers in NKG2A+/NKG2C- NK cells incubated with peptide and K562 expressing HLA-E (inhibition); type: cell-based, human; conditions: for effect on NKG2A+/NKG2C− NK cell inhibition (in words): K562 expressing HLA-E, CD107a, IFNG, TNF, CCL3; for percentage of CCL3+ NK cells / percentage of CD107a+ NK cells / percentage of IFNG+ NK cells / percentage of TNF+ NK cells: NKG2A+/NKG2C- NK cells, K562/HLA-E
How it was run: as §1

[4] = system: NKG2A−/NKG2C+ NK cells; test: NK cell activation markers in NKG2A-/NKG2C+ NK cells incubated with peptide and K562 expressing HLA-E (activation); type: cell-based, human; conditions: for effect on NKG2A−/NKG2C+ NK cell activation (in words): K562 expressing HLA-E, CD107a, IFNG, TNF, CCL3; for percentage of CCL3+ NK cells / percentage of CD107+ NK cells / percentage of IFNG+ NK cells / percentage of TNF+ NK cells: NKG2A-/NKG2C+ NK cells, K562/HLA-E
How it was run: as §1

QMPSRSLLF [human1, QMPSRSLLF]
binding of peptide-HLA-E complex to CD94/NKG2C normalized to a fitted Rmax ([1]; CD94/NKG2C concentration 0 μM): −0.007
binding of peptide-HLA-E complex to CD94/NKG2C normalized to a fitted Rmax ([1]; CD94/NKG2C concentration 0.1 μM): 0.007
binding of peptide-HLA-E complex to CD94/NKG2C normalized to a fitted Rmax ([1]; CD94/NKG2C concentration 0.2 μM): 0.017
binding of peptide-HLA-E complex to CD94/NKG2C normalized to a fitted Rmax ([1]; CD94/NKG2C concentration 0.4 μM): 0.038
binding of peptide-HLA-E complex to CD94/NKG2C normalized to a fitted Rmax ([1]; CD94/NKG2C concentration 0.8 μM): 0.076
binding of peptide-HLA-E complex to CD94/NKG2C normalized to a fitted Rmax ([1]; CD94/NKG2C concentration 1.6 μM): 0.144
binding of peptide-HLA-E complex to CD94/NKG2C normalized to a fitted Rmax ([1]; CD94/NKG2C concentration 3.2 μM): 0.246
binding of peptide-HLA-E complex to CD94/NKG2C normalized to a fitted Rmax ([1]; CD94/NKG2C concentration 6.4 μM): 0.394
binding of peptide-HLA-E complex to CD94/NKG2C normalized to a fitted Rmax ([1]; CD94/NKG2C concentration 12.8 μM): 0.564
binding of peptide-HLA-E complex to CD94/NKG2C normalized to a fitted Rmax ([1]; CD94/NKG2C concentration 25.6 μM): 0.723
binding of peptide-HLA-E complex to CD94/NKG2C normalized to a fitted Rmax ([1]; CD94/NKG2C concentration 51.2 μM): 0.832
binding of peptide-HLA-E complex to CD94/NKG2C normalized to a fitted Rmax ([1]; CD94/NKG2C concentration 102.4 μM): 0.912
Binding of peptide-HLA-E complexes to CD94/NKG2C normalized to a theoretical Rmax ([1]; CD94/NKG2C analyte concentration 0 μM): −0.004
Binding of peptide-HLA-E complexes to CD94/NKG2C normalized to a theoretical Rmax ([1]; CD94/NKG2C analyte concentration 0.1 μM): 0.004
Binding of peptide-HLA-E complexes to CD94/NKG2C normalized to a theoretical Rmax ([1]; CD94/NKG2C analyte concentration 0.2 μM): 0.010
Binding of peptide-HLA-E complexes to CD94/NKG2C normalized to a theoretical Rmax ([1]; CD94/NKG2C analyte concentration 0.4 μM): 0.023
Binding of peptide-HLA-E complexes to CD94/NKG2C normalized to a theoretical Rmax ([1]; CD94/NKG2C analyte concentration 0.8 μM): 0.047
Binding of peptide-HLA-E complexes to CD94/NKG2C normalized to a theoretical Rmax ([1]; CD94/NKG2C analyte concentration 1.6 μM): 0.088
Binding of peptide-HLA-E complexes to CD94/NKG2C normalized to a theoretical Rmax ([1]; CD94/NKG2C analyte concentration 3.2 μM): 0.151
Binding of peptide-HLA-E complexes to CD94/NKG2C normalized to a theoretical Rmax ([1]; CD94/NKG2C analyte concentration 6.4 μM): 0.242
Binding of peptide-HLA-E complexes to CD94/NKG2C normalized to a theoretical Rmax ([1]; CD94/NKG2C analyte concentration 12.8 μM): 0.346
Binding of peptide-HLA-E complexes to CD94/NKG2C normalized to a theoretical Rmax ([1]; CD94/NKG2C analyte concentration 25.6 μM): 0.444
Binding of peptide-HLA-E complexes to CD94/NKG2C normalized to a theoretical Rmax ([1]; CD94/NKG2C analyte concentration 51.2 μM): 0.511
Binding of peptide-HLA-E complexes to CD94/NKG2C normalized to a theoretical Rmax ([1]; CD94/NKG2C analyte concentration 102.4 μM): 0.560
percentage CCL3+ NK cells ([2]; Trial 1): 37%
percentage CD107+ NK cells ([2]; Trial 1): 25.1%
percentage TNF+ NK cells ([2]; Trial 1): 4.84%
percentage of IFNG+ NK cells ([2]; Trial 1): 16.2%
percentage CCL3+ NK cells ([2]; Trial 2): 59.6%
percentage CD107+ NK cells ([2]; Trial 2): 37.6%
percentage TNF+ NK cells ([2]; Trial 2): 11.3%
percentage of IFNG+ NK cells ([2]; Trial 2): 29.3%
percentage CCL3+ NK cells ([2]; Trial 3): 51.3%
percentage CD107+ NK cells ([2]; Trial 3): 47.2%
percentage TNF+ NK cells ([2]; Trial 3): 19%
percentage of IFNG+ NK cells ([2]; Trial 3): 38.5%
percentage CCL3+ NK cells ([2]; Trial 4): 33.1%
percentage CD107+ NK cells ([2]; Trial 4): 29.5%
percentage TNF+ NK cells ([2]; Trial 4): 9.26%
percentage of IFNG+ NK cells ([2]; Trial 4): 18.6%
percentage CCL3+ NK cells ([2]; Trial 5): 26%
percentage CD107+ NK cells ([2]; Trial 5): 19.8%
percentage TNF+ NK cells ([2]; Trial 5): 6.91%
percentage of IFNG+ NK cells ([2]; Trial 5): 15.9%
percentage CCL3+ NK cells ([2]; Trial 6): 24.1%
percentage CD107+ NK cells ([2]; Trial 6): 18.8%
percentage TNF+ NK cells ([2]; Trial 6): 3.78%
percentage of IFNG+ NK cells ([2]; Trial 6): 7.82%
effect on NKG2A+/NKG2C− NK cell inhibition (in words) ([3]; listed as SEQ ID NO. 7): mild inhibitory effects
effect on NKG2A+/NKG2C− NK cell inhibition (in words) ([3]; listed as h1): mild inhibitory effects; also recorded: strong inhibitory
percentage of CCL3+ NK cells ([3]; Trial 1): 31.8%
percentage of CD107a+ NK cells ([3]; Trial 1): 15.3%
percentage of IFNG+ NK cells ([3]; Trial 1): 4.26%
percentage of TNF+ NK cells ([3]; Trial 1): 1.66%
percentage of CCL3+ NK cells ([3]; Trial 2): 47%
percentage of CD107a+ NK cells ([3]; Trial 2): 25.7%
percentage of IFNG+ NK cells ([3]; Trial 2): 9.68%
percentage of TNF+ NK cells ([3]; Trial 2): 3.94%
percentage of CCL3+ NK cells ([3]; Trial 3): 28.8%
percentage of CD107a+ NK cells ([3]; Trial 3): 28.5%
percentage of IFNG+ NK cells ([3]; Trial 3): 15.5%
percentage of TNF+ NK cells ([3]; Trial 3): 9.23%
percentage of CCL3+ NK cells ([3]; Trial 4): 14.2%
percentage of CD107a+ NK cells ([3]; Trial 4): 14.6%
percentage of IFNG+ NK cells ([3]; Trial 4): 3.06%
percentage of TNF+ NK cells ([3]; Trial 4): 2.61%
percentage of CCL3+ NK cells ([3]; Trial 5): 25.5%
percentage of CD107a+ NK cells ([3]; Trial 5): 9.4%
percentage of IFNG+ NK cells ([3]; Trial 5): 2.48%
percentage of TNF+ NK cells ([3]; Trial 5): 1.56%
percentage of CCL3+ NK cells ([3]; Trial 6): 16.6%
percentage of CD107a+ NK cells ([3]; Trial 6): 13.3%
percentage of IFNG+ NK cells ([3]; Trial 6): 2.26%
percentage of TNF+ NK cells ([3]; Trial 6): 1.77%
effect on NKG2A−/NKG2C+ NK cell activation (in words) ([4]; listed as SEQ ID NO. 7): strong activating effects
effect on NKG2A−/NKG2C+ NK cell activation (in words) ([4]; listed as h1): strong inhibitory and activating effects
percentage of CCL3+ NK cells ([4]; Trial 1): 78.3%
percentage of CD107+ NK cells ([4]; Trial 1): 74.8%
percentage of IFNG+ NK cells ([4]; Trial 1): 62.6%
percentage of TNF+ NK cells ([4]; Trial 1): 51.1%
percentage of CCL3+ NK cells ([4]; Trial 2): 91.5%
percentage of CD107+ NK cells ([4]; Trial 2): 87.4%
percentage of IFNG+ NK cells ([4]; Trial 2): 84.1%
percentage of TNF+ NK cells ([4]; Trial 2): 75.2%
percentage of CCL3+ NK cells ([4]; Trial 3): 86.6%
percentage of CD107+ NK cells ([4]; Trial 3): 87%
percentage of IFNG+ NK cells ([4]; Trial 3): 80.5%
percentage of TNF+ NK cells ([4]; Trial 3): 72.9%
percentage of CCL3+ NK cells ([4]; Trial 4): 68.1%
percentage of CD107+ NK cells ([4]; Trial 4): 68.2%
percentage of IFNG+ NK cells ([4]; Trial 4): 58.1%
percentage of TNF+ NK cells ([4]; Trial 4): 51.6%
percentage of CCL3+ NK cells ([4]; Trial 5): 79.1%
percentage of CD107+ NK cells ([4]; Trial 5): 75.8%
percentage of IFNG+ NK cells ([4]; Trial 5): 66.9%
percentage of TNF+ NK cells ([4]; Trial 5): 64%
percentage of CCL3+ NK cells ([4]; Trial 6): 61.1%
percentage of CD107+ NK cells ([4]; Trial 6): 57.6%
percentage of IFNG+ NK cells ([4]; Trial 6): 46.7%
percentage of TNF+ NK cells ([4]; Trial 6): 38.8%
